In article PMC9612222, “Comparative Evaluation of the Antiglycation and Anti-α-Glucosidase Activities of Baicalein, Baicalin (Baicalein 7-O-Glucuronide) and the Antidiabetic Drug Metformin” (Pharmaceutics, 2022):
Like-named read-outs stand apart in the source and are kept apart here. Marks after values point to notes of the source that are not given here. One block for each compound: values may come before it.

What was measured:
BSA [1] = assay: BSA assay (AGE formation by fluorescence); set-up: species or system bovine; settings: for concentration inhibiting glyoxal-induced BSA glycation: 50 mg/mL BSA + 0.003 M glyoxal
Procedure: Glycated BSA was obtained according to a previously reported method. Briefly, AGEs were detected using BSA (50 mg/mL, pH 7.4), as protein substrate, and glucose (0.8 M), glyoxal (0.003 M) or ribose (0.1 M), as glycation agents. […] The fluorescence intensity was measured at an excitation wavelength of 355 nm and an emission wavelength of 460 nm with a PerkinElmer Victor Nivo microplate reader (Waltham, MA, USA). Inhibition of AGE formation was calculated as the fluorescence difference between glycation under the control condition and in the presence of each inhibitor. Aminoguanidine (2.5 mM, AG) was used as a positive control.

[2] = GK peptide–ribose assay (peptide cross–linking); settings: 2 days; for reduction of GK peptide cross–linking (in words): 1–100 µM
Procedure: The N–acetyl–glycyl–lysine methyl ester (GK) peptide–ribose assay was performed with some modifications to a published method. Briefly, GK peptide (27 mg/mL), a synthetic model peptide, was incubated with 40 mg/mL (0.27 M) D–ribose in sodium phosphate buffer (pH 7.4) and test samples were added at final concentrations ranging from 1.0–100 μM. After 48 h of incubation, fluorescence was read at 355 and 460 nm for excitation and emission wavelengths, respectively, with a PerkinElmer Victor Nivo microplate reader (Waltham, MA, USA). The fluorescence measurement allows the calculation of GK peptide glycation inhibition as a percentage difference between the control condition and glycation in the presence of the inhibitor. Aminoguanidine (2.5 mM, AG) was used as a positive control.

[3] = DPPH radical scavenging assay; settings: for pD2 (−log EC50) antiradical potency: 70 µM DPPH, 60 min
Procedure: The free radical scavenging activity of the samples was measured using the DPPH^• method. Sample solutions were prepared and added to 70 µM DPPH^•; the mixtures were kept in the dark for 60 min and absorbance was read at 517 nm using a Beckman Coulter DU 8005 spectrophotometer (Fullerton, CA, USA). The radical scavenging capacity was expressed as a percentage effect.

ORAC assay = settings: 5.0 µM compound
Procedure: The radical oxygen absorption capacity (ORAC) assay was performed as previously described. Briefly, trolox was prepared in phosphate buffer over a concentration range of 6.25 to 50 µM. In 24–well plates, 1.5 mL of fluorescein (0.08 µM) was added, followed by 250 µL of trolox for the control, 250 µL of buffer for the blank, and 250 µL of each inhibitor (5.0 µM). After 10 min of incubation, at 37 °C, 250 µL of 0.15 M AAPH was added. Successively, the PerkinElmer Victor Nivo microplate reader (Waltham, MA, USA) was settled for a fluorescence kinetic reading at 37 °C for one hour, with excitation and emission wavelengths, respectively, of 485 and 530 nm. The results were expressed in TEAC (trolox equivalent antioxidant capacity, TE µmol/µmol compound).

BSA [4] = assay: Carbonyl content assay (BSA–ribose glycation); set-up: species or system bovine; settings: 50 mg/mL BSA + 0.1 M ribose; for inhibition of carbonyl increase: not concentration dependent
Procedure: The total protein–bound carbonyl content was determined by derivatization of the carbonyl group with 2,4–dinitrophenylhydrazine (DNPH), which leads to the formation of a stable dinitrophenylhydrazone product, which was monitored spectrophotometrically at 375 nm with a PerkinElmer Victor Nivo microplate reader (Waltham, MA, USA). Glycated BSA samples were mixed with DNPH solution (10 mM in 2.0 M HCl) for 1 h at 37 °C in the dark. The proteins were precipitated with 20% trichloroacetic acid. The mixture was centrifuged at 10,000× g rpm, 10 min at 4 °C, to obtain a pellet and the supernatant was removed. DNPH was removed by extracting the pellet twice using a solution of ethyl acetate/ethanol (1:1). Lastly, the pellet was dissolved in guanidine hydrochloride (6 M) before reading the absorbance at 375 nm. The concentration of DNPH derivatized proteins was determined by the molar extinction coefficient of 22,000 M^−1 cm^−1 [64]. The protein concentration was measured using a BCA assay, and the protein carbonyl concentration was expressed as nmol/mg of protein. Aminoguanidine (2.5 mM, AG) was used as a positive control.

[5] = system: α–glucosidase (EC 3.2.1.20, Saccharomyces cerevisiae type I); assay type: biochemical; settings: for inhibition of α–glucosidase activity: 50 µM compound
Procedure: The inhibitory activity of baicalein and baicalin was studied using the yeast α–glucosidase assay, using pNPG as a substrate. The enzyme acts by hydrolyzing pNPG into […] and p–nitrophenol (yellow); the reaction was detected at different inhibitor concentrations by variation in chromatic intensity. Acarbose ([…]) was used as a positive control. Each sample was incubated with several α–glucosidase concentrations (0.035, 0.05, 0.07 and 0.1 µM) in PBS solutions (pH 6.8) for 10 min, at 37 °C. The reaction started with the addition of pNPG. Absorbance values were detected at 405 nm for 60 min, using a PerkinElmer Victor Nivo microplate reader spectrophotometer (Waltham, MA, USA). The half–maximal inhibitory concentration (IC50) was estimated by the plot of relative enzyme activity versus inhibitor concentration. The type of enzyme inhibition exerted by baicalein was evaluated from kinetic studies using different substrate concentrations (0.5, 1.0, 1,5 and 2.0 mM pNPG) through the Michaelis–Menten and Lineweaver–Burk plots.

HT–29 cells [6] = assay: MTT cell viability assay; assay type: cell-based, human
Procedure: Cell viability was assessed with the MTT assay. HT–29 cells were seeded in a 96–well plate at a density of 5000 cells in each well and allowed to grow overnight. The cells were treated with various concentrations of the substances. After 24 h of incubation, an aliquot of MTT solution was added to each well, to reach the final concentration of 500 μg/mL. Subsequently, after the MTT reduction by cellular enzymes, the medium was removed and the insoluble formazan salts were solubilized with 2–propanol. The absorbance of each purple formazan solution was measured using a PerkinElmer Victor Nivo microplate reader (Waltham, MA, USA), at a wavelength of 520 nm.

HT–29 cells [7] = assay: HT–29 uptake assay (HPLC–DAD); assay type: in vitro ADME, human; settings: 1 to 50 µM in cell medium, 30 min–3 h
Procedure: To evaluate the cellular uptake of compounds, a previously described method was used. Briefly, HT–29 cells were seeded in a 6–well plate at a density of 500,000 cells in each well in a complete medium and allowed to grow until confluence for 48 h, at 37 °C (Figure 11). […] After incubation, an aliquot of the extracellular solution was taken from each well and stored at −20 °C for further analysis. The medium was then removed, the cells were washed with PBS and prepared for the following steps: (i) protein quantification, cells were lysed with 200 μL of lysis buffer and the wells were washed with 200 μL of PBS; and (ii) evaluation of cell uptake, cells were gently scraped with PBS, centrifuged at 1250× g rpm for 5 min, and added with 500 μL of 80% v/v methanolic solution in water/0,1% v/v acetic acid to extract intracellular content. The samples were kept on ice for 15 min, then sonicated and centrifuged at 20,000× g rpm for 10 min. […]
Chromatographic analyses were performed with an HPLC instrument (Waters Corporation, Milford, DE, USA) equipped with a 1525 binary HPLC pump and a 2998 photodiode array detector. […] Peaks were detected in the range of 210–400 nm. […] The amount of each compound was calculated using a standard calibration curve. The protein content of the lysate was detected using the Lowry protein assay, to express the results as nmol/mg protein.

rat α–glucosidase = settings: cited from earlier work
α–glucosidase = settings: cited from earlier work
[8] = 50 mg/mL BSA + 0.1 M ribose, 5 days
[9] = 50 mg/mL BSA + 0.8 M glucose, 7 days
[10] = α–glucosidase 0.035 µM, 2 mM pNPG
[11] = α–glucosidase 0.05 µM, 2 mM pNPG
[12] = α–glucosidase 0.07 µM, 2 mM pNPG
[13] = α–glucosidase 0.10 µM, 2 mM pNPG

Compound: CN(C)C(=N)NC(=N)N [metformin, 1,1–dimethylbiguanide]
inhibition of AGE formation (in words) (BSA [1]; [8]): did not achieve any protection
inhibition of AGE formation (in words) (BSA [1]; [9]): did not show any significant inhibition
inhibition of AGE formation (in words) (BSA [1]; 1–100 µM, glucose, glyoxal and ribose (Figure 3)): did not show a significant effect
reduction of GK peptide cross–linking (in words) [2]: not active
DPPH scavenging effect (in words) ([3]; 0.1 to 500 µM): did not show any scavenging effect
TEAC (trolox equivalent antioxidant capacity) (ORAC assay): 0.48 ± 0.10 µmol TE/µmol

Compound: CC(=O)N[C@@H](CS)C(=O)O [NAC, N–acetylcysteine]
pD2 (−log EC50) antiradical potency [3]: 4.38 ± 0.02
TEAC (trolox equivalent antioxidant capacity) (ORAC assay): 1.45 ± 0.01 µmol TE/µmol

Compound: O=C1O[C@H]([C@@H](O)CO)C(O)=C1O [ascorbic acid]
pD2 (−log EC50) antiradical potency [3]: 4.77 ± 0.04
TEAC (trolox equivalent antioxidant capacity) (ORAC assay): 0.65 ± 0.01 µmol TE/µmol

The next lines start with results.

IC50 ([2]; GK peptide + ribose, read-out: IC50 of AGE formation (GK cross–linking)): 49.7 ± 0.5 µM
pD2 (−log EC50) antiradical potency [3]: 4.91 ± 0.01
inhibition of α–glucosidase activity ([5]; 0.035 µM α–glucosidase): about 90%
inhibition of α–glucosidase activity ([5]; 0.05 µM α–glucosidase): ~75%
type of enzyme inhibition ([5]; Lineweaver–Burk plot, 0.05 µM enzyme, 0.5–2.0 mM pNPG): mixed–type
Ki ([5]; mixed–model inhibition, 0.05 µM enzyme, 0.5–2.0 mM pNPG, read-out: inhibition constant (Ki)): 25.9 µM
IC50 [5, 10]: 18.1 µM
pD2 (−Log IC50) [5, 10]: 4.74 ± 0.02 ^a
IC50 [5, 11]: 24.1 µM
pD2 (−Log IC50) [5, 11]: 4.62 ± 0.04 ^a
IC50 [5, 12]: 51.6 µM
pD2 (−Log IC50) [5, 12]: 4.29 ± 0.07 ^a
IC50 [5, 13]: 555 µM
pD2 (−Log IC50) [5, 13]: 3.26 ± 0.26 ^b
parent compound after incubation with cells (in words) (HT–29 cells [7]): no longer measurable
Compound: O=c1cc(-c2ccccc2)oc2cc(O)c(O)c(O)c12 [baicalein, 5,6,7–trihydroxyflavone]
concentration inhibiting glyoxal-induced BSA glycation (BSA [1]; 7 days): 10 µM
concentration from which glycated albumin is reduced (BSA [1]; [8]): 5 µM
concentration from which AGE formation is significantly inhibited (BSA [1]; [9]): 5 µM
pD2 of AGE formation (GK cross–linking) ([2]; GK peptide + ribose): 4.3
concentration range with detectable reduction of carbonyl increase (BSA [4]): 10 to 100 µM
inhibition of carbonyl increase (BSA [4]): 15–25%
TEAC (trolox equivalent antioxidant capacity) (ORAC assay): 5.41 ± 0.33 µmol TE/µmol
change of cell viability (HT–29 cells [6]; 5 µM): −25 % of the control
IC50 (HT–29 cells [6]; Homo sapiens, HT-29, 0.1 to 50 µM, 24 h, read-out: pD2 for inhibition of HT–29 cell viability (converted)): 36.3 µM
Ki (rat α–glucosidase; ref 49): 14.6 µM
Ki (α–glucosidase; ref 53): 45 µM
Ki (α–glucosidase; ref 54): 44 µM

pD2 (−log EC50) antiradical potency [3]: 4.89 ± 0.03
effect on α–glucosidase activity (in words) ([5]; 0.05 µM enzyme, 2 mM pNPG, 1–100 µM compound): did not induce any modification
Compound: O=C(O)[C@H]1O[C@@H](Oc2cc3oc(-c4ccccc4)cc(=O)c3c(O)c2O)[C@H](O)[C@@H](O)[C@@H]1O [baicalin, 7–β–D–glucuronic acid of 5,6–trihydroxyflavone]
concentration inhibiting glyoxal-induced BSA glycation (BSA [1]; 7 days): 5 µM
concentration from which glycated albumin is reduced (BSA [1]; [8]): 5 µM
concentration from which AGE formation is significantly inhibited (BSA [1]; [9]): 5 µM
reduction of GK peptide cross–linking (in words) [2]: only slightly and not significantly reduced
concentration range with detectable reduction of carbonyl increase (BSA [4]): 10 to 100 µM
lowest concentration tested that inhibited carbonyl formation (BSA [4]): 5 µM
inhibition of carbonyl increase (BSA [4]): 15–25%
TEAC (trolox equivalent antioxidant capacity) (ORAC assay): 5.90 ± 0.23 µmol TE/µmol
IC50 (rat α–glucosidase; in vitro): > 400 µM
